# Experiments:
# Assay type in all cases: in vivo
# [1] = system: field corn (Zea mays L., var. Dekalb 535, CORN); assay: Post-emerge greenhouse test, crop damage rating; conditions: 14 days after application, scale 0-100
# In short: (§1)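 Scores use a 0 (no damage) to 100 (complete kill) scale, taken 14 days after a foliar spray. Acetone solutions with 0.25% v/v non-ionic surfactant were applied by track sprayer at 187 l/ha and 63-1000 g ai/ha to bottom-watered 2-3 leaf plants.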
# [2] = system: upland rice (Oryza sp., var.Tebonnet, RICE); assay: Post-emerge greenhouse test, crop damage rating; conditions: 14 days after application, scale 0-100
# In short: as §1
# [3] = system: field corn (Zea mays L., var. Dekalb 535, CORN); assay: Pre-emerge greenhouse test, crop damage rating; conditions: 14 days after application, rating scale 0-100
# In short: (§2)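 Visual 0–100 injury rating (100 = all plants dead) taken 14 days after treatment. Rates of 125–1000 g ai/ha in acetone, 187 l/ha, were sprayed onto soil one day post-sowing; pots were surface-watered to incorporate, then bottom-watered.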
# [4] = system: upland rice (Oryza sp., var.Tebonnet, RICE); assay: Pre-emerge greenhouse test, crop damage rating; conditions: 14 days after application, rating scale 0-100
# In short: as §2
# [5] = system: green foxtail (Setaria viridis, SETVI); assay: Post-emerge greenhouse herbicide test, phytotoxicity rating; conditions: 14 days after application, scale 0-100
# In short: as §1
# [6] = system: large crabgrass (Digitaria sanguinalis, DIGSA); assay: as above; conditions: 14 days after application, scale 0-100
# In short: as §1
# [7] = system: sicklepod (Cassia obtusifolia, CASOB); assay: as above; conditions: 14 days after application, scale 0-100
# In short: as §1
# [8] = system: velvetleaf (Abutilon theophrasti, ABUTH); assay: as above; conditions: 14 days after application, scale 0-100
# In short: as §1
# [9] = system: lambsquarters (Chenopodium album, CHEAL); assay: as above; conditions: 14 days after application, scale 0-100
# In short: as §1
# [10] = system: Johnsongrass (Sorghum halepense, SORHA); assay: as above; conditions: 14 days after application, scale 0-100
# In short: as §1
# [11] = system: barnyardgrass (Echinochloa crusgalli, ECHCG); assay: as above; conditions: 14 days after application, scale 0-100
# In short: as §1
# [12] = system: redroot pigweed (Amaranthus retroflexus, AMARE); assay: as above; conditions: 14 days after application, scale 0-100
# In short: as §1
# [13] = system: ivyleaf morningglory (Ipomoea hederacea, IPOHE); assay: as above; conditions: 14 days after application, scale 0-100
# In short: as §1
# [14] = system: common ragweed (Ambrosia artemisiifolia L., AMBEL); assay: as above; conditions: 14 days after application, scale 0-100
# In short: as §1
# [15] = system: green foxtail (Setaria viridis, SETVI); assay: Pre-emerge greenhouse herbicide test, phytotoxicity rating; conditions: 14 days after application, rating scale 0-100
# In short: as §2
# [16] = system: large crabgrass (Digitaria sanguinalis, DIGSA); assay: as above; conditions: 14 days after application, rating scale 0-100
# In short: as §2
# [17] = system: sicklepod (Cassia obtusifolia, CASOB); assay: as above; conditions: 14 days after application, rating scale 0-100
# In short: as §2
# [18] = system: velvetleaf (Abutilon theophrasti, ABUTH); assay: as above; conditions: 14 days after application, rating scale 0-100
# In short: as §2
# [19] = system: lambsquarters (Chenopodium album, CHEAL); assay: as above; conditions: 14 days after application, rating scale 0-100
# In short: as §2
# [20] = system: Johnsongrass (Sorghum halepense, SORHA); assay: as above; conditions: 14 days after application, rating scale 0-100
# In short: as §2
# [21] = system: barnyardgrass (Echinochloa crusgalli, ECHCG); assay: as above; conditions: 14 days after application, rating scale 0-100
# In short: as §2
# [22] = system: redroot pigweed (Amaranthus retroflexus, AMARE); assay: as above; conditions: 14 days after application, rating scale 0-100
# In short: as §2
# [23] = system: common ragweed (Ambrosia artemisiifolia L., AMBEL); assay: as above; conditions: 14 days after application, rating scale 0-100
# In short: as §2
# [24] = system: ivyleaf morningglory (Ipomoea hederacea, IPOHE); assay: as above; conditions: 14 days after application, rating scale 0-100
# In short: as §2
# [25] = system: soybean (Glycine max L., var. Pella 86, SOY); assay: Post-emerge greenhouse test, crop damage rating; design: key to crop damage rating SOY: 0-100 scale: 0 = no damage, 100 = complete death of all plants; conditions: 14 days after application, scale 0-100
# In short: as §1
# [26] = system: soybean (Glycine max L., var. Pella 86, SOY); assay: Pre-emerge greenhouse test, crop damage rating; design: key to SOY crop damage rating: 0 = no damage, 100 = complete death of all plants; conditions: 14 days after application, rating scale 0-100
# In short: as §2
smiles,measurement,setting,value
COc1nc(OC)nc(Oc2cc(-n3c(=O)n4n(c3=S)CCCC4)c(F)cc2Cl)n1 [Compound 8-34],crop damage rating CORN,[1]; rate 63 g ai/ha,5
same,crop damage rating CORN,[1]; rate 500 g ai/ha,15
same,crop damage rating RICE,[2]; rate 63 g ai/ha,0
same,crop damage rating RICE,[2]; rate 500 g ai/ha,40
same,CORN crop damage rating,[3]; Rate 125 g al/ha,0
same,CORN crop damage rating,[3]; Rate 500 g al/ha,5
same,RICE crop damage rating,[4]; Rate 125 g al/ha,20
same,RICE crop damage rating,[4]; Rate 500 g al/ha,50
same,phytotoxicity rating SETVI,[5]; rate 63 g ai/ha,20
same,phytotoxicity rating SETVI,[5]; rate 500 g ai/ha,65
same,phytotoxicity rating DIGSA,[6]; rate 63 g ai/ha,0
same,phytotoxicity rating DIGSA,[6]; rate 500 g ai/ha,40
same,phytotoxicity rating CASOB,[7]; rate 63 g ai/ha,30
same,phytotoxicity rating CASOB,[7]; rate 500 g ai/ha,100
same,phytotoxicity rating ABUTH,[8]; rate 63 g ai/ha,95
same,phytotoxicity rating ABUTH,[8]; rate 500 g ai/ha,100
same,phytotoxicity rating CHEAL,[9]; rate 63 g ai/ha,95
same,phytotoxicity rating CHEAL,[9]; rate 500 g ai/ha,100
same,phytotoxicity rating SORHA,[10]; rate 63 g ai/ha,0
same,phytotoxicity rating SORHA,[10]; rate 500 g ai/ha,50
same,phytotoxicity rating ECHCG,[11]; rate 63 g ai/ha,10
same,phytotoxicity rating ECHCG,[11]; rate 500 g ai/ha,0
same,phytotoxicity rating AMARE,[12]; rate 63 g ai/ha,50
same,phytotoxicity rating AMARE,[12]; rate 500 g ai/ha,100
same,phytotoxicity rating IPOHE,[13]; rate 63 g ai/ha,100
same,phytotoxicity rating IPOHE,[13]; rate 500 g ai/ha,100
same,phytotoxicity rating AMBEL,[14]; rate 63 g ai/ha,50
same,phytotoxicity rating AMBEL,[14]; rate 500 g ai/ha,95
same,SETVI phytotoxicity rating,[15]; Rate 125 g al/ha,80
same,SETVI phytotoxicity rating,[15]; Rate 500 g al/ha,99
same,DIGSA phytotoxicity rating,[16]; Rate 125 g al/ha,10
same,DIGSA phytotoxicity rating,[16]; Rate 500 g al/ha,80
same,CASOB phytotoxicity rating,[17]; Rate 125 g al/ha,0
same,CASOB phytotoxicity rating,[17]; Rate 500 g al/ha,40
same,ABUTH phytotoxicity rating,[18]; Rate 125 g al/ha,100
same,ABUTH phytotoxicity rating,[18]; Rate 500 g al/ha,100
same,CHEAL phytotoxicity rating,[19]; Rate 125 g al/ha,100
same,CHEAL phytotoxicity rating,[19]; Rate 500 g al/ha,100
same,SORHA phytotoxicity rating,[20]; Rate 125 g al/ha,20
same,SORHA phytotoxicity rating,[20]; Rate 500 g al/ha,80
same,ECHCG phytotoxicity rating,[21]; Rate 125 g al/ha,0
same,ECHCG phytotoxicity rating,[21]; Rate 500 g al/ha,40
same,AMARE phytotoxicity rating,[22]; Rate 125 g al/ha,100
same,AMARE phytotoxicity rating,[22]; Rate 500 g al/ha,100
same,AMBEL phytotoxicity rating,[23]; Rate 125 g al/ha,40
same,AMBEL phytotoxicity rating,[23]; Rate 500 g al/ha,100
same,IPOHE phytotoxicity rating,[24]; Rate 125 g al/ha,0
same,IPOHE phytotoxicity rating,[24]; Rate 500 g al/ha,80
same,crop damage rating SOY,[25]; rate 63 g ai/ha,50
same,crop damage rating SOY,[25]; rate 500 g ai/ha,90
same,SOY crop damage rating,[26]; Rate 125 g al/ha,10
same,SOY crop damage rating,[26]; Rate 500 g al/ha,0
CCOC(=O)C(C)Oc1cc([N+](=O)[O-])c(Oc2cc(-n3c(=O)n4n(c3=S)CCCC4)c(F)cc2Cl)cc1Cl (centres unmarked) [Compound 8-38],crop damage rating CORN,[1]; rate 63 g ai/ha,0
same,crop damage rating CORN,[1]; rate 250 g ai/ha,20
same,crop damage rating RICE,[2]; rate 63 g ai/ha,20
same,crop damage rating RICE,[2]; rate 250 g ai/ha,50
same,CORN crop damage rating,[3]; Rate 125 g al/ha,0
same,CORN crop damage rating,[3]; Rate 250 g al/ha,0
same,RICE crop damage rating,[4]; Rate 125 g al/ha,0
same,RICE crop damage rating,[4]; Rate 250 g al/ha,0
same,phytotoxicity rating SETVI,[5]; rate 63 g ai/ha,0
same,phytotoxicity rating SETVI,[5]; rate 250 g ai/ha,20
same,phytotoxicity rating DIGSA,[6]; rate 63 g ai/ha,0
same,phytotoxicity rating DIGSA,[6]; rate 250 g ai/ha,0
same,phytotoxicity rating CASOB,[7]; rate 63 g ai/ha,30
same,phytotoxicity rating CASOB,[7]; rate 250 g ai/ha,30
same,phytotoxicity rating ABUTH,[8]; rate 63 g ai/ha,100
same,phytotoxicity rating ABUTH,[8]; rate 250 g ai/ha,00
same,phytotoxicity rating CHEAL,[9]; rate 63 g ai/ha,40
same,phytotoxicity rating CHEAL,[9]; rate 250 g ai/ha,50
same,phytotoxicity rating SORHA,[10]; rate 63 g ai/ha,0
same,phytotoxicity rating SORHA,[10]; rate 250 g ai/ha,0
same,phytotoxicity rating ECHCG,[11]; rate 63 g ai/ha,0
same,phytotoxicity rating ECHCG,[11]; rate 250 g ai/ha,0
same,phytotoxicity rating AMARE,[12]; rate 63 g ai/ha,60
same,phytotoxicity rating AMARE,[12]; rate 250 g ai/ha,70
same,phytotoxicity rating IPOHE,[13]; rate 63 g ai/ha,40
same,phytotoxicity rating IPOHE,[13]; rate 250 g ai/ha,100
same,phytotoxicity rating AMBEL,[14]; rate 63 g ai/ha,20
same,phytotoxicity rating AMBEL,[14]; rate 250 g ai/ha,50
same,SETVI phytotoxicity rating,[15]; Rate 125 g al/ha,0
same,SETVI phytotoxicity rating,[15]; Rate 250 g al/ha,70
same,DIGSA phytotoxicity rating,[16]; Rate 125 g al/ha,0
same,DIGSA phytotoxicity rating,[16]; Rate 250 g al/ha,0
same,CASOB phytotoxicity rating,[17]; Rate 125 g al/ha,0
same,CASOB phytotoxicity rating,[17]; Rate 250 g al/ha,0
same,ABUTH phytotoxicity rating,[18]; Rate 125 g al/ha,100
same,ABUTH phytotoxicity rating,[18]; Rate 250 g al/ha,100
same,CHEAL phytotoxicity rating,[19]; Rate 125 g al/ha,80
same,CHEAL phytotoxicity rating,[19]; Rate 250 g al/ha,90
same,SORHA phytotoxicity rating,[20]; Rate 125 g al/ha,0
same,SORHA phytotoxicity rating,[20]; Rate 250 g al/ha,0
same,ECHCG phytotoxicity rating,[21]; Rate 125 g al/ha,0
same,ECHCG phytotoxicity rating,[21]; Rate 250 g al/ha,0
same,AMARE phytotoxicity rating,[22]; Rate 125 g al/ha,30
same,AMARE phytotoxicity rating,[22]; Rate 250 g al/ha,80
same,AMBEL phytotoxicity rating,[23]; Rate 125 g al/ha,0
same,AMBEL phytotoxicity rating,[23]; Rate 250 g al/ha,0
same,IPOHE phytotoxicity rating,[24]; Rate 125 g al/ha,0
same,IPOHE phytotoxicity rating,[24]; Rate 250 g al/ha,30
same,crop damage rating SOY,[25]; rate 63 g ai/ha,10
same,crop damage rating SOY,[25]; rate 250 g ai/ha,20
same,SOY crop damage rating,[26]; Rate 125 g al/ha,0
same,SOY crop damage rating,[26]; Rate 250 g al/ha,0

# Source: patent publication US6479435B1, “Diaryl ethers and processes for their preparation and herbicidal and desiccant compositions containing them” (ISK Americas Incorporated, priority 1997, dated 2002)
